Results: ChEMBL document CHEMBL2040724, “New synthesis and promising neuroprotective role in experimental ischemic stroke of ONO-1714” (Eur J Med Chem, 2012)
Calls of active or inactive are those of the source. The calls are words filed in the database; no cut-off is given here.

Legend:
[1] = Cytotoxicity against CD-1 mouse peritoneal macrophages assessed as survival rate at 0.1 uM after 48 hrs by SRB assay; type: cell-based, Peritoneal macrophage cell; details: read-out: Activity
[2] = Cytotoxicity against CD-1 mouse peritoneal macrophages assessed as survival rate at 1 uM after 48 hrs by SRB assay; type: cell-based, Peritoneal macrophage cell; details: read-out: Activity
[3] = Cytotoxicity against CD-1 mouse peritoneal macrophages assessed as survival rate at 10 uM after 48 hrs by SRB assay; type: cell-based, Peritoneal macrophage cell; details: read-out: Activity
[4] = Cytotoxicity against CD-1 mouse peritoneal macrophages assessed as survival rate at 100 uM after 48 hrs by SRB assay; type: cell-based, Peritoneal macrophage cell; details: read-out: Activity
[5] = target: T1, Nitric oxide synthase, inducible (Mus musculus, UniProt P29477); test: Inhibition of mouse recombinant iNOS activity assessed as conversion of [14C]-L-arginine to [14C]-L-citrulline by liquid scintillation counting
T1 sequence (P29477 whole entry): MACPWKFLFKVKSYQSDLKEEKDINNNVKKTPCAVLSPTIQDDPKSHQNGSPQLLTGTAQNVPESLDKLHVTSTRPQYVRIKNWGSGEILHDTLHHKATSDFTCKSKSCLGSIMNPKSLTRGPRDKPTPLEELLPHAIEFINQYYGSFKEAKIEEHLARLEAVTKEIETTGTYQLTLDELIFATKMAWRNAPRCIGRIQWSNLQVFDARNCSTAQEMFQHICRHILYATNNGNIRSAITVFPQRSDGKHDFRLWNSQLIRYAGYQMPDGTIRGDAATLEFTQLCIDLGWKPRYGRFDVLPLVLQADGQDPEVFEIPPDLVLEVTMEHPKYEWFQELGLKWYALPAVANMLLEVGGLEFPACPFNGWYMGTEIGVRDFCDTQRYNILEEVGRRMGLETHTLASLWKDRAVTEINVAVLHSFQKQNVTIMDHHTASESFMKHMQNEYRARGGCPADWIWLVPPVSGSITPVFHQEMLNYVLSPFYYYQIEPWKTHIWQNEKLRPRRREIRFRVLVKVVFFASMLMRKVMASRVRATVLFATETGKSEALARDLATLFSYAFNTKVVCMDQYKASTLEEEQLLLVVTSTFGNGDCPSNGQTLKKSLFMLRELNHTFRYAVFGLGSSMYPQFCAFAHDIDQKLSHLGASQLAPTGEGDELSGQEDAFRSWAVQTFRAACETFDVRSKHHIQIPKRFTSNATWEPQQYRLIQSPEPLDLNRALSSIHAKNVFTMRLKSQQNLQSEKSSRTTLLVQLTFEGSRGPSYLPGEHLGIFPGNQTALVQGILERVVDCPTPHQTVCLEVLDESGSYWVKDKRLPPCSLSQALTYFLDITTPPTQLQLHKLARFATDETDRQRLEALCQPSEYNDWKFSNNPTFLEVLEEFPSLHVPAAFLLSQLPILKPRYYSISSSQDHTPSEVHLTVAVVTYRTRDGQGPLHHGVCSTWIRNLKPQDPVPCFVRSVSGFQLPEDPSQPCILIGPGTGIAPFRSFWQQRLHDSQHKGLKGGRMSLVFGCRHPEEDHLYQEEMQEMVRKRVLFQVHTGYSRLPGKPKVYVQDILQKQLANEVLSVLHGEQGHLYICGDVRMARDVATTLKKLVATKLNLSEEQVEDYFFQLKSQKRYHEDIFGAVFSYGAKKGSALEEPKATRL

[6] = target: Nitric oxide synthase, inducible (Rattus norvegicus, UniProt Q06518); test: Inhibition of rat iNOS
[7] = target: Nitric oxide synthase, inducible (Homo sapiens, UniProt P35228); test: Inhibition of human iNOS
[8] = system: Peritoneal macrophage cell; test: Inhibition of LPS/INFgamma-induced nitric oxide production in CD-1 mouse peritoneal macrophages after 48 hrs by Griess reaction; details: CD-1, Peritoneal macrophage cell
[9] = system: Mus musculus; test: Neuroprotective activity in permanent middle cerebral artery occlusion model of CD-1 mouse brain assessed as reduction of infarct volume administered subcutaneously by using Alzet mini-osmotic pumps for 21 days before and 48 hrs after pMCAO by TTC staining; type: functional, organism-based

Chain of Nitric oxide synthase, inducible (Rattus norvegicus, UniProt Q06518) (Q06518 whole entry): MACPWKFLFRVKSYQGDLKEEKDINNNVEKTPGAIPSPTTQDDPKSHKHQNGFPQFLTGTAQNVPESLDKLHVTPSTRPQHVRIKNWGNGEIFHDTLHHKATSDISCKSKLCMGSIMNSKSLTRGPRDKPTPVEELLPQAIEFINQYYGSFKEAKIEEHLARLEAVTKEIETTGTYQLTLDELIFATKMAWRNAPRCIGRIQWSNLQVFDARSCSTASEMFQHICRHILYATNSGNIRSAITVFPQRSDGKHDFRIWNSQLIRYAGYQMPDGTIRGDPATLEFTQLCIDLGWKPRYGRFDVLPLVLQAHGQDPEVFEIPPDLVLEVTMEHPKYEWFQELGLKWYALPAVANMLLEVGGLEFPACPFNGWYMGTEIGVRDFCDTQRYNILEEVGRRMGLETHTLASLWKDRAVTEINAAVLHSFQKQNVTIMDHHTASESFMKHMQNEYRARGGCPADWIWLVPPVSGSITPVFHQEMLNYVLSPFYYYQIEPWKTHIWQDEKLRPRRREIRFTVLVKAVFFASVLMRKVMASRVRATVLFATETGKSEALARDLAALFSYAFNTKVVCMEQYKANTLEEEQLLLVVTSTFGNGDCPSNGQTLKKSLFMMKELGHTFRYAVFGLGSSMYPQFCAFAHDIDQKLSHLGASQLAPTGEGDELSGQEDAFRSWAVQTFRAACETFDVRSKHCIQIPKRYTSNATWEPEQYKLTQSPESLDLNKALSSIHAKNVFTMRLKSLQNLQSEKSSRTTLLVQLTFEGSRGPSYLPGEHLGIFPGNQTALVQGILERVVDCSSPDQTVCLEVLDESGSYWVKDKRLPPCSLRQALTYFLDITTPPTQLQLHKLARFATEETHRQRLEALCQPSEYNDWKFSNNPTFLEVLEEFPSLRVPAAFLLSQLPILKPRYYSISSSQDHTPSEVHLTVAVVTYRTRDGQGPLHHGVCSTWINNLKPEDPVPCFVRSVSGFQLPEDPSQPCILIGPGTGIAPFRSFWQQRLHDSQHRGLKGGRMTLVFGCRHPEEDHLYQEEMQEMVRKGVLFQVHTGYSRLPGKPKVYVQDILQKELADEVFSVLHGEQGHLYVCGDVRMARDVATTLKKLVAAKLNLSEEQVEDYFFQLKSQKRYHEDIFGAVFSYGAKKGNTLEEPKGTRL
Chain of Nitric oxide synthase, inducible (Homo sapiens, UniProt P35228) (P35228 whole entry): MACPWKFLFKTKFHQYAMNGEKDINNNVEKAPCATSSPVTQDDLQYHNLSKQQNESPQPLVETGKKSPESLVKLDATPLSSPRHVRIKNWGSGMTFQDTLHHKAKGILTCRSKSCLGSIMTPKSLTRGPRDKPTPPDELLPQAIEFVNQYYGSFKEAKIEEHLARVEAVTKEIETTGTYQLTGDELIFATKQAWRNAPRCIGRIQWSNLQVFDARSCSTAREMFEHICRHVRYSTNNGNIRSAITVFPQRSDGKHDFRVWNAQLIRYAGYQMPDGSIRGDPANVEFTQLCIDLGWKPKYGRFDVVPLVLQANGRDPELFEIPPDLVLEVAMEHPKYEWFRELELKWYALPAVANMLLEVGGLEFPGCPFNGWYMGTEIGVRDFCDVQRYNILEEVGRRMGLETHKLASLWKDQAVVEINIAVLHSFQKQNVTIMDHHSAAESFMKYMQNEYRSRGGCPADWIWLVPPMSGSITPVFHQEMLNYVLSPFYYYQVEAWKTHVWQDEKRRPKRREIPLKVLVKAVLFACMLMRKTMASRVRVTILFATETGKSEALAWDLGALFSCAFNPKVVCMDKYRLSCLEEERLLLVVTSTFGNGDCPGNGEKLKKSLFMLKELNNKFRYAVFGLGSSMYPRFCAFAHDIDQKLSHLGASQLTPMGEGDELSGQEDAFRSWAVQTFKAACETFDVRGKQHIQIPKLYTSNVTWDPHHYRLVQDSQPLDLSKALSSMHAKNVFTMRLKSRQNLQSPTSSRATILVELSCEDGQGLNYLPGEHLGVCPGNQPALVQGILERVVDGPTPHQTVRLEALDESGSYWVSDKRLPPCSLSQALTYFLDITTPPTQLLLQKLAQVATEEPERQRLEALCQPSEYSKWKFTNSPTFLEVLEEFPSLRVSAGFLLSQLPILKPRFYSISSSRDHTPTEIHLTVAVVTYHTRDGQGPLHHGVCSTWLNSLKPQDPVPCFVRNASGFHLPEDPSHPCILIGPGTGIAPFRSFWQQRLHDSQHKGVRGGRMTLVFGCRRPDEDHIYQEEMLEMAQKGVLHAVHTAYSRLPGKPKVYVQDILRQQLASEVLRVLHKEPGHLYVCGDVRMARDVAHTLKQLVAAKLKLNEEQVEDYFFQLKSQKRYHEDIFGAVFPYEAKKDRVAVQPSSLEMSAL

Structure (SMILES)	viability at 48 h, 0.1 µM [1]	viability at 48 h, 1 µM [2]	viability at 48 h, 10 µM [3]	viability at 48 h, 100 µM [4]	IC50 [5]	Ki [6]	Ki [7]	IC50 [8]	Activity [9]
C[C@H]1CC(=N)N[C@@H]2[C@H](Cl)[C@@H]21	98.4%	93.6%	99.1%	97.2%	11 nM	1.8 nM	1.8 nM	–	–
C[C@H]1CC(N)=N[C@@H]2[C@H](Cl)[C@@H]21	–	–	–	–	–	–	–	820 nM	Active
